Assay results from paper PMC2774256 (Bioorganic & medicinal chemistry, 2009).
Square brackets hold non-standard residues; d marks the D form. Ends that are not written are not given here. * marks the point of attachment. dNMeF = CN[C@H](Cc1ccccc1)C(=O)O; Cha = N[C@@H](CC1CCCCC1)C(=O)O; NMeL = CN[C@@H](CC(C)C)C(=O)O; dNMeV = CN[C@@H](C(=O)O)C(C)C; NMeV = CN[C@H](C(=O)O)C(C)C; Cbz = O=C(OCc1ccccc1)*; Bn = c1ccc(C*)cc1

Columns and labels:
[1] = tested on: PL-45 pancreatic cancer cells; assay: 3H-thymidine incorporation/growth inhibition assay
[2] = tested on: BxPC-3 pancreatic cancer cells; assay: 3H-thymidine incorporation/growth inhibition assay

Substance | cytotoxicity / growth inhibition in words [1] | cytotoxicity / growth inhibition in words [2]
FLVK(Cbz)[NMeL] [Compound 68] | not toxic | not toxic
FL[NMeV]L[dF] [Compound 62] | relatively non-toxic | relatively non-toxic
FL[dV][dL]L [Compound 37] | not potent | not potent
F[dNMeF]V[Cha]L [Compound 49] | underwhelming cytotoxicity | underwhelming cytotoxicity
F[dNMeF]V[Cha]S(Bn) [Compound 60] | not effective | not effective
F[dNMeF][dV]LL [Compound 32] | cytotoxic | very poor cytotoxicity
[dF]L[NMeV][dL][dF] [Compound 61] | relatively non-toxic | relatively non-toxic
[dY][dNMeF]VLL [Compound 15] | cytotoxic | very poor cytotoxicity
cyclo(FL[dNMeV][dK][dF]) [Compound 64] | not toxic | not toxic
